Measurements: PMC6588435 (Cell chemical biology, 2019)
Converted amounts (≈) assume the structure as drawn. “And” between values parts separate entries of the source, which are not always exact repeats. Identical values can stand only once. Like-named read-outs stand apart in the source and are kept apart here.

Columns and labels:
Mtb Erdman (ATCC 35801) = assay: In vitro susceptibility testing; format: cell-based, Mycobacterium tuberculosis
Mtb Erdman cells = format: cell-based, Mycobacterium tuberculosis
Mtb FDTS [1] = biological target: T1, Mtb FDTS (Mycobacterium tuberculosis, UniProt P9WG57); assay: Differential scanning calorimetry of Mtb FDTS; conditions: DSC; control (FDTS, dUMP, FAD) 66.6 °C
T1 sequence (P9WG57 whole entry): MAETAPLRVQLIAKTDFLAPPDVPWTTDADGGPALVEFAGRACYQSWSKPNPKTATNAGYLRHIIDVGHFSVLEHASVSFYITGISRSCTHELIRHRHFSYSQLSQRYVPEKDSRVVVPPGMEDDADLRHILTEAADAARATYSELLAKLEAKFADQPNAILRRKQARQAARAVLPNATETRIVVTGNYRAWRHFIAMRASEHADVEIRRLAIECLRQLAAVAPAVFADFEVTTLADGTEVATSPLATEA

Mtb FDTS [2] = biological target: T1, Mtb FDTS; assay: Mtb FDTS NADPH oxidation assay; format: biochemical
Mtb FDTS [3] = biological target: T1, Mtb FDTS; assay: HPLC analysis of Mtb FDTS reaction; format: biochemical
Mtb DHFR [4] = biological target: T2, Mtb DHFR (Mycobacterium tuberculosis, UniProt P9WNX1); assay: biochemical
T2 sequence (P9WNX1 whole entry): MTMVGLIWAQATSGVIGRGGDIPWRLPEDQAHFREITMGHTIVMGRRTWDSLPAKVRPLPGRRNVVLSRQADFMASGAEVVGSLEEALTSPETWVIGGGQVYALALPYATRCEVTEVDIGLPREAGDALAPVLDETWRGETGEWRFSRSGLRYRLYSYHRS

Mtb Rv2671 = Mtb Rv2671 (Mycobacterium tuberculosis, UniProt P71968); assay: Mtb Rv2671 enzyme inhibition assay; format: biochemical
Mtb DHFR [5] = biological target: T2, Mtb DHFR; assay: biochemical; remark: listed apart in the source
Mtb DHFR [6] = biological target: T2, Mtb DHFR; format: binding; conditions: DSC, with NADPH; control (Mtb DHFR+NADPH) 65 °C
Mtb cells = conditions: treatment of Mtb cells; ref Nixon et al. (2014); cited from earlier work
[7] = read-out: Mtb Rv2671 Ki, 50 μM NADPH

## CN(Cc1cnc2nc(N)nc(N)c2n1)c1ccc(C(=O)N[C@@H](CCC(=O)O)C(=O)O)cc1 [MTX, Methotrexate]
Mtb Erdman (ATCC 35801); Mycobacterium tuberculosis, ATCC35801|ERDMAN
  MIC: > 100 µg/mL

## Nc1ccc(C(=O)O)c(O)c1 [PAS, para-aminosalicylic acid]
Mtb Erdman cells; 0.36 μg/ml
  reduction of 14C incorporation to the FAME/MAME fraction: 52%
Mtb Erdman cells; TLC of FAME/MAME
  effect on methoxymycolic acids: significant reduction
Mtb Erdman (ATCC 35801); Mycobacterium tuberculosis, ATCC35801|ERDMAN, read-out: MIC, WT Mtb
  MIC: 0.5 µg/mL (≈ 3.27 µM)

## Nc1nc(=O)c2nc(CNc3ccc(C(=O)NC(CCC(=O)O)C(=O)O)c(O)c3)cnc2[nH]1 (centres unmarked) [PAS-M, 2-[(4-{[(2-amino-4-oxo-1,4-dihydropteridin-6-yl)methyl]amino}-2-hydroxyphenyl)formamido] pentanedioic acid]
Mtb FDTS [1]
  Mtb FDTS Tm: 71.9 °C
Mtb FDTS [2]
  IC50: 14400 ± 1500 nM
Mtb FDTS [3]
  decrease in dTMP levels compared to control: ~ 2.5 fold
Mtb DHFR [4]; read-out: Mtb DHFR koff
  koff: 0.0107 s⁻¹
Mtb DHFR [4]; read-out: Mtb DHFR tR (residence time)
  residence time: 1.5 ± 0.3 min
Mtb Rv2671
  Ki: 27500 nM
Mtb DHFR [5]
  Ki: 750 ± 120 nM

## CCc1nc(N)nc(N)c1C#C[C@H](C)c1cc(-c2ccncc2)ccc1OC [UCP1063]
Mtb DHFR [6]
  Mtb DHFR Tm: 71 °C and 71 ± 2.7 °C
Mtb Erdman (ATCC 35801)
  MIC: 2 µg/mL (≈ 5.36 µM)
Mtb Rv2671; [7]
  Ki: 52 ± 6.2 nM

## CCc1nc(N)nc(N)c1C#C[C@@H](C)c1cc(-c2ccc(C(=O)O)cc2)ccc1OC [UCP1164]
Mtb Erdman (ATCC 35801)
  MIC: 0.5 µg/mL (≈ 1.2 µM)
Mtb Rv2671; [7]
  Ki: 120 ± 8.5 nM

## CC1(C)N=C(N)N=C(N)N1OCCCOc1cc(Cl)c(Cl)cc1Cl [WR99210]
Mtb cells
  decrease in the concentration of SAM: 20 fold
